Assay results reported in patent publication US10485235B2, “Aryloxypyrimidinyl ethers as herbicides” (FMC Corporation, priority 2015, dated 2019).

What follows are compounds tested on foxtail, giant (giant foxtail, Setaria faberii) (assay: Test A preemergence, giant foxtail). Conditions: Preemergence, 31 g ai/ha; 0 to 100 scale (0 no effect, 100 complete control).
Format: in vivo
Method in brief: (§1)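 Test chemicals in a solvent/surfactant mixture were applied as a preemergence directed soil spray on seeded loam–sand, or postemergence to plants 2–10 cm tall at the one- to two-leaf stage. After roughly 10 days in a greenhouse, injury was visually rated versus untreated controls on a 0 (no effect) to 100 (complete control) scale.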
With `N#CCCCOc1c(C#N)cccc1Oc1ncc(Cl)cn1` [Compound 22] the “Plant response rating, Foxtail, Giant” value was 0.

Same assay, conditions: Preemergence, 125 g ai/ha; 0 to 100 scale (0 no effect, 100 complete control)
In the case of `N#CCCCOc1c(C#N)cccc1Oc1ncc(Cl)cn1` [Compound 22], the “Plant response rating, Foxtail, Giant” value was 90.

These compounds were tested on wheat (Triticum aestivum) (assay: Test A postemergence, wheat). Conditions: 31 g ai/ha, postemergence; 0 to 100 scale, 0 is no effect, 100 is complete control; approximately 10 days.
Format: in vivo
Method in brief: as §1
In the case of `N#CCCCOc1c(C#N)cccc1Oc1ncc(Cl)cn1` [Compound 22], the “Plant response rating, Wheat” value was 0.

Same assay, conditions: 125 g ai/ha, postemergence; 0 to 100 scale, 0 is no effect, 100 is complete control; approximately 10 days
In the case of `N#CCCCOc1c(C#N)cccc1Oc1ncc(Cl)cn1` [Compound 22], the “Plant response rating, Wheat” value was 20.

These compounds were tested on galium (catchweed bedstraw, Galium aparine) (assay: Test A postemergence, galium). Conditions: 31 g ai/ha, postemergence; 0 to 100 scale, 0 is no effect, 100 is complete control; approximately 10 days.
Format: in vivo
Method in brief: as §1
For `N#CCCCOc1c(C#N)cccc1Oc1ncc(Cl)cn1` [Compound 22], the “Plant response rating, Galium” value was 20.

Same assay, conditions: 125 g ai/ha, postemergence; 0 to 100 scale, 0 is no effect, 100 is complete control; approximately 10 days
For `N#CCCCOc1c(C#N)cccc1Oc1ncc(Cl)cn1` [Compound 22], the “Plant response rating, Galium” value was 50.

The compounds below were run on ryegrass, Italian (Italian ryegrass, Lolium multiflorum) (assay: Test A postemergence, Italian ryegrass). Conditions: 31 g ai/ha, postemergence; 0 to 100 scale, 0 is no effect, 100 is complete control; approximately 10 days.
Format: in vivo
Method in brief: as §1
`N#CCCCOc1c(C#N)cccc1Oc1ncc(Cl)cn1` [Compound 22] was tested, and the “Plant response rating, Ryegrass, Italian” value was 0.

Same assay, conditions: 125 g ai/ha, postemergence; 0 to 100 scale, 0 is no effect, 100 is complete control; approximately 10 days
`N#CCCCOc1c(C#N)cccc1Oc1ncc(Cl)cn1` [Compound 22] was tested, and the “Plant response rating, Ryegrass, Italian” value was 0.

What follows are compounds tested on barnyardgrass (Echinochloa crus-galli) (assay: Test B flooded paddy test, barnyardgrass). Conditions: 250 g ai/ha, Flood; visual rating after 13 to 15 days; scale 0 to 100, 0 is no effect, 100 is complete control.
Format: in vivo
Method in brief: (§2)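 Visual ratings, 0 = no effect to 100 = complete control, versus controls after 13 to 15 days in greenhouse. Test compounds were added to paddy water kept 3 cm over the soil surface, on plants at 2-leaf stage.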
For `N#CCCCOc1c(C#N)cccc1Oc1ncc(Cl)cn1` [Compound 22], the “Plant response rating, Barnyardgrass” value was 0.

What follows are compounds tested on blackgrass (Alopecurus myosuroides) (assay: Test A postemergence, blackgrass). Conditions: 31 g ai/ha, postemergence; 0 to 100 scale, 0 is no effect, 100 is complete control; approximately 10 days.
Format: in vivo
Method in brief: as §1
With `N#CCCCOc1c(C#N)cccc1Oc1ncc(Cl)cn1` [Compound 22] the “Plant response rating, Blackgrass” value was 0.

Same assay, conditions: 125 g ai/ha, postemergence; 0 to 100 scale, 0 is no effect, 100 is complete control; approximately 10 days
`N#CCCCOc1c(C#N)cccc1Oc1ncc(Cl)cn1` [Compound 22] was tested, and the “Plant response rating, Blackgrass” value was 0.

Each compound was assayed on barnyardgrass (Echinochloa crus-galli) (assay: Test A preemergence, barnyardgrass). Conditions: Preemergence, 31 g ai/ha; 0 to 100 scale (0 no effect, 100 complete control).
Format: in vivo
Method in brief: as §1
For `N#CCCCOc1c(C#N)cccc1Oc1ncc(Cl)cn1` [Compound 22], the “Plant response rating, Barnyardgrass” value was 0.

Same assay, conditions: Preemergence, 125 g ai/ha; 0 to 100 scale (0 no effect, 100 complete control)
With `N#CCCCOc1c(C#N)cccc1Oc1ncc(Cl)cn1` [Compound 22] the “Plant response rating, Barnyardgrass” value was 20.

What follows are compounds tested on barnyardgrass (Echinochloa crus-galli) (assay: Test A postemergence, barnyardgrass). Conditions: 31 g ai/ha, postemergence; 0 to 100 scale, 0 is no effect, 100 is complete control; approximately 10 days.
Format: in vivo
Method in brief: as §1
`N#CCCCOc1c(C#N)cccc1Oc1ncc(Cl)cn1` [Compound 22] was tested, and the “Plant response rating, Barnyardgrass” value was 0.

Same assay, conditions: 125 g ai/ha, postemergence; 0 to 100 scale, 0 is no effect, 100 is complete control; approximately 10 days
In the case of `N#CCCCOc1c(C#N)cccc1Oc1ncc(Cl)cn1` [Compound 22], the “Plant response rating, Barnyardgrass” value was 0.

These compounds were tested on ragweed (common ragweed, Ambrosia elatior) (assay: Test A preemergence, ragweed). Conditions: Preemergence, 31 g ai/ha; 0 to 100 scale (0 no effect, 100 complete control).
Format: in vivo
Method in brief: as §1
For `N#CCCCOc1c(C#N)cccc1Oc1ncc(Cl)cn1` [Compound 22], the “Plant response rating, Ragweed” value was 10.

Same assay, conditions: Preemergence, 125 g ai/ha; 0 to 100 scale (0 no effect, 100 complete control)
In the case of `N#CCCCOc1c(C#N)cccc1Oc1ncc(Cl)cn1` [Compound 22], the “Plant response rating, Ragweed” value was 30.

What follows are compounds tested on rice (Oryza sativa) (assay: Test B flooded paddy test, rice). Conditions: 250 g ai/ha, Flood; visual rating after 13 to 15 days; scale 0 to 100, 0 is no effect, 100 is complete control.
Format: in vivo
Method in brief: as §2
With `N#CCCCOc1c(C#N)cccc1Oc1ncc(Cl)cn1` [Compound 22] the “Plant response rating, Rice” value was 0.

The compounds below were run on ducksalad (Heteranthera limosa) (assay: Test B flooded paddy test, ducksalad). Conditions: 250 g ai/ha, Flood; visual rating after 13 to 15 days; scale 0 to 100, 0 is no effect, 100 is complete control.
Format: in vivo
Method in brief: as §2
With `N#CCCCOc1c(C#N)cccc1Oc1ncc(Cl)cn1` [Compound 22] the “Plant response rating, Ducksalad” value was 0.

What follows are compounds tested on kochia (Kochia scoparia) (assay: Test A postemergence, kochia). Conditions: 31 g ai/ha, postemergence; 0 to 100 scale, 0 is no effect, 100 is complete control; approximately 10 days.
Format: in vivo
Method in brief: as §1
`N#CCCCOc1c(C#N)cccc1Oc1ncc(Cl)cn1` [Compound 22] was tested, and the “Plant response rating, Kochia” value was 80.

Same assay, conditions: 125 g ai/ha, postemergence; 0 to 100 scale, 0 is no effect, 100 is complete control; approximately 10 days
`N#CCCCOc1c(C#N)cccc1Oc1ncc(Cl)cn1` [Compound 22] was tested, and the “Plant response rating, Kochia” value was 90.

These compounds were tested on pigweed (Amaranthus retroflexus) (assay: Test A postemergence, pigweed). Conditions: 31 g ai/ha, postemergence; 0 to 100 scale, 0 is no effect, 100 is complete control; approximately 10 days.
Format: in vivo
Method in brief: as §1
For `N#CCCCOc1c(C#N)cccc1Oc1ncc(Cl)cn1` [Compound 22], the “Plant response rating, Pigweed” value was 30.

Same assay, conditions: 125 g ai/ha, postemergence; 0 to 100 scale, 0 is no effect, 100 is complete control; approximately 10 days
With `N#CCCCOc1c(C#N)cccc1Oc1ncc(Cl)cn1` [Compound 22] the “Plant response rating, Pigweed” value was 80.

Each compound was assayed on sedge, umbrella (small-flower umbrella sedge, Cyperus difformis) (assay: Test B flooded paddy test, umbrella sedge). Conditions: 250 g ai/ha, Flood; visual rating after 13 to 15 days; scale 0 to 100, 0 is no effect, 100 is complete control.
Format: in vivo
Method in brief: as §2
In the case of `N#CCCCOc1c(C#N)cccc1Oc1ncc(Cl)cn1` [Compound 22], the “Plant response rating, Sedge, Umbrella” value was 0.

These compounds were tested on pigweed (Amaranthus retroflexus) (assay: Test A preemergence, pigweed). Conditions: Preemergence, 31 g ai/ha; 0 to 100 scale (0 no effect, 100 complete control).
Format: in vivo
Method in brief: as §1
For `N#CCCCOc1c(C#N)cccc1Oc1ncc(Cl)cn1` [Compound 22], the “Plant response rating, Pigweed” value was 80.

Same assay, conditions: Preemergence, 125 g ai/ha; 0 to 100 scale (0 no effect, 100 complete control)
With `N#CCCCOc1c(C#N)cccc1Oc1ncc(Cl)cn1` [Compound 22] the “Plant response rating, Pigweed” value was 100.

These compounds were tested on ragweed (common ragweed, Ambrosia elatior) (assay: Test A postemergence, ragweed). Conditions: 31 g ai/ha, postemergence; 0 to 100 scale, 0 is no effect, 100 is complete control; approximately 10 days.
Format: in vivo
Method in brief: as §1
With `N#CCCCOc1c(C#N)cccc1Oc1ncc(Cl)cn1` [Compound 22] the “Plant response rating, Ragweed” value was 0.

Same assay, conditions: 125 g ai/ha, postemergence; 0 to 100 scale, 0 is no effect, 100 is complete control; approximately 10 days
For `N#CCCCOc1c(C#N)cccc1Oc1ncc(Cl)cn1` [Compound 22], the “Plant response rating, Ragweed” value was 10.

These compounds were tested on kochia (Kochia scoparia) (assay: Test A preemergence, kochia). Conditions: Preemergence, 31 g ai/ha; 0 to 100 scale (0 no effect, 100 complete control).
Format: in vivo
Method in brief: as §1
In the case of `N#CCCCOc1c(C#N)cccc1Oc1ncc(Cl)cn1` [Compound 22], the “Plant response rating, Kochia” value was 70.

Same assay, conditions: Preemergence, 125 g ai/ha; 0 to 100 scale (0 no effect, 100 complete control)
In the case of `N#CCCCOc1c(C#N)cccc1Oc1ncc(Cl)cn1` [Compound 22], the “Plant response rating, Kochia” value was 90.

Each compound was assayed on corn (Zea mays) (assay: Test A postemergence, corn). Conditions: 31 g ai/ha, postemergence; 0 to 100 scale, 0 is no effect, 100 is complete control; approximately 10 days.
Format: in vivo
Method in brief: as §1
For `N#CCCCOc1c(C#N)cccc1Oc1ncc(Cl)cn1` [Compound 22], the “Plant response rating, Corn” value was 10.

Same assay, conditions: 125 g ai/ha, postemergence; 0 to 100 scale, 0 is no effect, 100 is complete control; approximately 10 days
`N#CCCCOc1c(C#N)cccc1Oc1ncc(Cl)cn1` [Compound 22] was tested, and the “Plant response rating, Corn” value was 20.

What follows are compounds tested on foxtail, giant (giant foxtail, Setaria faberii) (assay: Test A postemergence, giant foxtail). Conditions: 31 g ai/ha, postemergence; 0 to 100 scale, 0 is no effect, 100 is complete control; approximately 10 days.
Format: in vivo
Method in brief: as §1
In the case of `N#CCCCOc1c(C#N)cccc1Oc1ncc(Cl)cn1` [Compound 22], the “Plant response rating, Foxtail, Giant” value was 0.

Same assay, conditions: 125 g ai/ha, postemergence; 0 to 100 scale, 0 is no effect, 100 is complete control; approximately 10 days
In the case of `N#CCCCOc1c(C#N)cccc1Oc1ncc(Cl)cn1` [Compound 22], the “Plant response rating, Foxtail, Giant” value was 10.

What follows are compounds tested on ryegrass, Italian (Italian ryegrass, Lolium multiflorum) (assay: Test A preemergence, Italian ryegrass). Conditions: Preemergence, 31 g ai/ha; 0 to 100 scale (0 no effect, 100 complete control).
Format: in vivo
Method in brief: as §1
In the case of `N#CCCCOc1c(C#N)cccc1Oc1ncc(Cl)cn1` [Compound 22], the “Plant response rating, Ryegrass, Italian” value was 0.

Same assay, conditions: Preemergence, 125 g ai/ha; 0 to 100 scale (0 no effect, 100 complete control)
In the case of `N#CCCCOc1c(C#N)cccc1Oc1ncc(Cl)cn1` [Compound 22], the “Plant response rating, Ryegrass, Italian” value was 0.
